Results from PubChem BioAssay AID270 (DTP/NCI, 2004).
Values joined by “and” are separate entries in the source; they are usually repeats but may differ in a detail not shown here. Identical values can stand only once. Records with an inconclusive call do not appear.

Tested on: BDF1 mice, s.c. Lewis lung carcinoma, T/C %
Experiment: NCI In Vivo Anticancer Drug Screen. Data for tumor model Lewis Lung Carcinoma (subcutaneous) in B6D2F1 (BDF1) mice
Outline: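 Transplanted tumors grown in mice; compound vs vehicle dosing; endpoint survival or tumor size; ratio T/C.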

[1] = endpoint: mean tumor weight, dose: 40.0 mg/kg/injection, schedule: Q01DX011 (ip), vehicle: carboxymethylcellulose (CMC), higher = larger tumour

In the case of `O=NN(CCCl)C(=O)N[C@H]1CCCC[C@H]1Cl`, the T/C (endpoint: median survival time, dose: 22.5 mg/kg/injection, schedule: Q01DX001 (ip), vehicle: Klucel (hydroxypropylcellulose) (HPC), higher = longer survival) is reported as 106 % of control, the T/C (endpoint: median survival time, dose: 360.0 mg/kg/injection, schedule: Q01DX001 (ip), vehicle: Klucel (hydroxypropylcellulose) (HPC), higher = longer survival) is reported as 102 % of control and the T/C (endpoint: median tumor weight (est.), dose: 45.0 mg/kg/injection, schedule: Q01DX001 (ip), vehicle: carboxymethylcellulose (CMC), higher = larger tumour) is reported as 89 % of control. For the same compound, the T/C (endpoint: median tumor weight (est.), dose: 90.0 mg/kg/injection, schedule: Q01DX001 (ip), vehicle: carboxymethylcellulose (CMC), higher = larger tumour) was 6 % of control and the T/C (endpoint: median tumor weight (est.), dose: 130.0 mg/kg/injection, schedule: Q01DX001 (ip), vehicle: carboxymethylcellulose (CMC), higher = larger tumour) was 8 % of control.

With `ClCCN(CCCl)CC(Cl)COc1cccc2ccccc12` (configuration not stated) the T/C (endpoint: median survival time, dose: 1.25 mg/kg/injection, schedule: Q01DX009 (ip), vehicle: Klucel (hydroxypropylcellulose) (HPC), higher = longer survival) was 92 % of control and 103 % of control, the T/C (endpoint: median survival time, dose: 2.5 mg/kg/injection, schedule: Q01DX009 (ip), vehicle: Klucel (hydroxypropylcellulose) (HPC), higher = longer survival) was 96 % of control and 103 % of control and the T/C (endpoint: median survival time, dose: 5.0 mg/kg/injection, schedule: Q01DX009 (ip), vehicle: Klucel (hydroxypropylcellulose) (HPC), higher = longer survival) was 97 % of control and 101 % of control. For the same compound, the T/C (endpoint: median survival time, dose: 10.0 mg/kg/injection, schedule: Q01DX009 (ip), vehicle: Klucel (hydroxypropylcellulose) (HPC), higher = longer survival) was 92 % of control and 110 % of control, the T/C (endpoint: median survival time, dose: 20.0 mg/kg/injection, schedule: Q01DX009 (ip), vehicle: Klucel (hydroxypropylcellulose) (HPC), higher = longer survival) was 96 % of control and 106 % of control and the T/C (endpoint: median survival time, dose: 40.0 mg/kg/injection, schedule: Q01DX009 (ip), vehicle: Klucel (hydroxypropylcellulose) (HPC), higher = longer survival) was 97 % of control.

With `O=c1[nH]c(=O)n(C2CC(O)C(CO)O2)cc1F` (configuration not stated) the T/C (endpoint: mean tumor weight, dose: 10.0 mg/kg/injection, schedule: Q01DX011 (ip), vehicle: saline, higher = larger tumour) was 82 % of control, the T/C (endpoint: mean tumor weight, dose: 20.0 mg/kg/injection, schedule: Q01DX011 (ip), vehicle: saline, higher = larger tumour) was 57 % of control and the T/C (endpoint: mean tumor weight, dose: 26.0 mg/kg/injection, schedule: Q01DX011 (ip), vehicle: saline, higher = larger tumour) was 45 % of control. For the same compound, the T/C (endpoint: mean tumor weight, dose: 40.0 mg/kg/injection, schedule: Q01DX011 (ip), vehicle: other, higher = larger tumour) was 17 % of control and 23 % of control, the T/C (endpoint: mean tumor weight, dose: 40.0 mg/kg/injection, schedule: Q01DX011 (ip), vehicle: saline, higher = larger tumour) was 25 % of control and 27 % of control and the T/C (endpoint: mean tumor weight, dose: 60.0 mg/kg/injection, schedule: Q01DX011 (ip), vehicle: saline, higher = larger tumour) was 17 % of control and 23 % of control. The T/C (endpoint: mean tumor weight, dose: 80.0 mg/kg/injection, schedule: Q01DX011 (ip), vehicle: other, higher = larger tumour) was 10 % of control, the T/C (endpoint: mean tumor weight, dose: 80.0 mg/kg/injection, schedule: Q01DX011 (ip), vehicle: saline, higher = larger tumour) was 18 % of control and the T/C (endpoint: mean tumor weight, dose: 120.0 mg/kg/injection, schedule: Q01DX011 (ip), vehicle: saline, higher = larger tumour) was 1 % of control. The T/C (endpoint: mean tumor weight, dose: 160.0 mg/kg/injection, schedule: Q01DX011 (ip), vehicle: other, higher = larger tumour) was 4 % of control, the T/C (endpoint: median survival time, dose: 25.0 mg/kg/injection, schedule: Q01DX009 (ip), vehicle: saline, higher = longer survival) was 90 % of control and 110 % of control and 114 % of control and the T/C (endpoint: median survival time, dose: 36.0 mg/kg/injection, schedule: Q01DX011 (ip), vehicle: saline, higher = longer survival) was 116 % of control. For the same compound, the T/C (endpoint: median survival time, dose: 50.0 mg/kg/injection, schedule: Q01DX009 (ip), vehicle: saline with Tween-80, higher = longer survival) was 116 % of control, the T/C (endpoint: median survival time, dose: 50.0 mg/kg/injection, schedule: Q01DX009 (ip), vehicle: saline, higher = longer survival) was 92 % of control and 98 % of control and the T/C (endpoint: median survival time, dose: 80.0 mg/kg/injection, schedule: Q01DX011 (ip), vehicle: saline, higher = longer survival) was 104 % of control. The T/C (endpoint: median survival time, dose: 100.0 mg/kg/injection, schedule: Q01DX009 (ip), vehicle: saline with Tween-80, higher = longer survival) was 95 % of control, the T/C (endpoint: median survival time, dose: 119.0 mg/kg/injection, schedule: Q01DX011 (ip), vehicle: saline, higher = longer survival) was 94 % of control and the T/C (endpoint: median tumor weight (est.), dose: 25.0 mg/kg/injection, schedule: Q01DX009 (ip), vehicle: saline with Tween-80, higher = larger tumour) was 72 % of control. The T/C (endpoint: median tumor weight (est.), dose: 50.0 mg/kg/injection, schedule: Q01DX009 (ip), vehicle: saline with Tween-80, higher = larger tumour) was 66 % of control and the T/C (endpoint: median tumor weight (est.), dose: 100.0 mg/kg/injection, schedule: Q01DX009 (ip), vehicle: saline with Tween-80, higher = larger tumour) was 32 % of control.

`CCCNC(=NC)c1ccc(NC(=O)c2ccc(C(=O)Nc3ccc(C(=NC)NCCC)cc3)cc2)cc1` was tested, and the T/C (endpoint: mean tumor weight, dose: 2.5 mg/kg/injection, schedule: Q01DX011 (ip), vehicle: other, higher = larger tumour) was 124 % of control and the T/C (endpoint: mean tumor weight, dose: 5.0 mg/kg/injection, schedule: Q01DX011 (ip), vehicle: other, higher = larger tumour) was 56 % of control.

With `CCN(CC)CCNc1ccc(C)c2sc3ccccc3c(=O)c12` the T/C (endpoint: mean tumor weight, dose: 20.0 mg/kg/injection, schedule: Q01DX011 (ip), vehicle: carboxymethylcellulose (CMC), higher = larger tumour) was 62 % of control and 65 % of control, the T/C [1] was 51 % of control and 59 % of control and the T/C (endpoint: mean tumor weight, dose: 80.0 mg/kg/injection, schedule: Q01DX011 (ip), vehicle: carboxymethylcellulose (CMC), higher = larger tumour) was 16 % of control.

For `COc1cc(NS(C)(=O)=O)ccc1Nc1c2ccc(Cl)cc2nc2c(OC)cccc12`, the T/C (endpoint: median survival time, dose: 2.3 mg/kg/injection, schedule: Q01DX009 (ip), vehicle: other, higher = longer survival) was 118 % of control.

With `CCCCOC(=O)Nc1ccc(OCC)cc1` the T/C (endpoint: mean tumor weight, dose: 35.0 mg/kg/injection, schedule: Q01DX011 (ip), vehicle: carboxymethylcellulose (CMC), higher = larger tumour) was 63 % of control, the T/C (endpoint: mean tumor weight, dose: 70.0 mg/kg/injection, schedule: Q01DX011 (ip), vehicle: carboxymethylcellulose (CMC), higher = larger tumour) was 85 % of control and the T/C (endpoint: mean tumor weight, dose: 140.0 mg/kg/injection, schedule: Q01DX011 (ip), vehicle: carboxymethylcellulose (CMC), higher = larger tumour) was 68 % of control. For the same compound, the T/C (endpoint: mean tumor weight, dose: 280.0 mg/kg/injection, schedule: Q01DX011 (ip), vehicle: carboxymethylcellulose (CMC), higher = larger tumour) was 69 % of control.

In the case of `CC(=O)OCC(=O)[C@@]1(O)CC[C@H]2[C@@H]3C[C@H](C)C4=CC(=O)C=C[C@]4(C)[C@@]3(Br)[C@@H](O)C[C@@]21C`, the T/C (endpoint: mean tumor weight, dose: 0.56 mg/kg/injection, schedule: Q01DX011 (sc), vehicle: steriod suspending solution, higher = larger tumour) is reported as 89 % of control, the T/C (endpoint: mean tumor weight, dose: 1.12 mg/kg/injection, schedule: Q01DX011 (sc), vehicle: steriod suspending solution, higher = larger tumour) is reported as 69 % of control and the T/C (endpoint: mean tumor weight, dose: 4.5 mg/kg/injection, schedule: Q01DX011 (sc), vehicle: steriod suspending solution, higher = larger tumour) is reported as 57 % of control and 72 % of control. The T/C (endpoint: mean tumor weight, dose: 5.3 mg/kg/injection, schedule: Q01DX011 (sc), vehicle: steriod suspending solution, higher = larger tumour) was 50 % of control, the T/C (endpoint: mean tumor weight, dose: 7.9 mg/kg/injection, schedule: Q01DX011 (sc), vehicle: steriod suspending solution, higher = larger tumour) was 45 % of control and the T/C (endpoint: mean tumor weight, dose: 9.0 mg/kg/injection, schedule: Q01DX011 (sc), vehicle: steriod suspending solution, higher = larger tumour) was 52 % of control. The T/C (endpoint: mean tumor weight, dose: 11.8 mg/kg/injection, schedule: Q01DX011 (sc), vehicle: steriod suspending solution, higher = larger tumour) was 31 % of control, the T/C (endpoint: mean tumor weight, dose: 17.7 mg/kg/injection, schedule: Q01DX011 (ip), vehicle: carboxymethylcellulose (CMC), higher = larger tumour) was 44 % of control and the T/C (endpoint: mean tumor weight, dose: 17.7 mg/kg/injection, schedule: Q01DX011 (sc), vehicle: steriod suspending solution, higher = larger tumour) was 28 % of control and 38 % of control. The T/C (endpoint: mean tumor weight, dose: 18.0 mg/kg/injection, schedule: Q01DX011 (sc), vehicle: steriod suspending solution, higher = larger tumour) was 42 % of control, the T/C (endpoint: mean tumor weight, dose: 26.6 mg/kg/injection, schedule: Q01DX011 (ip), vehicle: carboxymethylcellulose (CMC), higher = larger tumour) was 48 % of control and the T/C (endpoint: mean tumor weight, dose: 26.6 mg/kg/injection, schedule: Q01DX011 (sc), vehicle: steriod suspending solution, higher = larger tumour) was 37 % of control. For the same compound, the T/C (endpoint: mean tumor weight, dose: 27.0 mg/kg/injection, schedule: Q01DX011 (sc), vehicle: steriod suspending solution, higher = larger tumour) was 37 % of control, the T/C [1] was 13 % of control and the T/C (endpoint: mean tumor weight, dose: 40.0 mg/kg/injection, schedule: Q01DX011 (sc), vehicle: steriod suspending solution, higher = larger tumour) was 32 % of control. For the same compound, the T/C (endpoint: mean tumor weight, dose: 50.0 mg/kg/injection, schedule: Q01DX011 (ip), vehicle: carboxymethylcellulose (CMC), higher = larger tumour) was 59 % of control, the T/C (endpoint: mean tumor weight, dose: 60.0 mg/kg/injection, schedule: Q01DX011 (ip), vehicle: carboxymethylcellulose (CMC), higher = larger tumour) was 6 % of control and the T/C (endpoint: mean tumor weight, dose: 60.0 mg/kg/injection, schedule: Q01DX011 (sc), vehicle: steriod suspending solution, higher = larger tumour) was 34 % of control.

`CC1CCC[N-]C1.CC1CCC[N-]C1.CC1CCC[N-]C1.CC1CCC[N-]C1.[Cl][Rh][Cl]` (configuration not stated) was tested, and the T/C (endpoint: median survival time, dose: 3.0 mg/kg/injection, schedule: Q01DX009 (ip), vehicle: Klucel (hydroxypropylcellulose) (HPC), higher = longer survival) was 102 % of control and the T/C (endpoint: median survival time, dose: 6.0 mg/kg/injection, schedule: Q01DX009 (ip), vehicle: Klucel (hydroxypropylcellulose) (HPC), higher = longer survival) was 91 % of control.

With `CC(C)=CCC/C(C)=C/CO` the T/C (endpoint: mean tumor weight, dose: 3.9 mg/kg/injection, schedule: Q01DX011 (ip), vehicle: saline, higher = larger tumour) was 74 % of control, the T/C (endpoint: mean tumor weight, dose: 7.8 mg/kg/injection, schedule: Q01DX011 (ip), vehicle: saline, higher = larger tumour) was 85 % of control and the T/C (endpoint: mean tumor weight, dose: 15.6 mg/kg/injection, schedule: Q01DX011 (ip), vehicle: saline, higher = larger tumour) was 71 % of control. For the same compound, the T/C (endpoint: mean tumor weight, dose: 31.3 mg/kg/injection, schedule: Q01DX011 (ip), vehicle: saline, higher = larger tumour) was 68 % of control and 73 % of control and the T/C (endpoint: mean tumor weight, dose: 62.5 mg/kg/injection, schedule: Q01DX011 (ip), vehicle: saline, higher = larger tumour) was 105 % of control.

In the case of `CCCCCC(=O)O[C@]1(C(C)=O)CC[C@H]2[C@@H]3CCC4=CC(=O)CC[C@]4(C)[C@H]3CC[C@@]21C`, the T/C (endpoint: mean tumor weight, dose: 375.0 mg/kg/injection, schedule: Q01DX011 (sc), vehicle: steriod suspending solution, higher = larger tumour) is reported as 89 % of control and 99 % of control and the T/C (endpoint: mean tumor weight, dose: 750.0 mg/kg/injection, schedule: Q01DX011 (sc), vehicle: steriod suspending solution, higher = larger tumour) is reported as 91 % of control and 92 % of control.

With `CC(=O)OC1C=CC(=O)OC1C1OC1C` (configuration not stated) the T/C (endpoint: mean tumor weight, dose: 4.0 mg/kg/injection, schedule: Q01DX011 (ip), vehicle: saline, higher = larger tumour) was 105 % of control, the T/C (endpoint: mean tumor weight, dose: 6.0 mg/kg/injection, schedule: Q01DX011 (ip), vehicle: saline, higher = larger tumour) was 81 % of control and the T/C (endpoint: mean tumor weight, dose: 9.0 mg/kg/injection, schedule: Q01DX011 (ip), vehicle: saline, higher = larger tumour) was 91 % of control. The T/C (endpoint: mean tumor weight, dose: 19.0 mg/kg/injection, schedule: Q01DX011 (ip), vehicle: saline, higher = larger tumour) was 62 % of control.
